Consider three compounds from ChEMBL document CHEMBL1201862, “PubChem BioAssay data set” (2004).

Active and inactive are the calls of the source.

For one experiment, the target named is DNA topoisomerase (Yersinia pestis, UniProt A0A2S9PM60). In words: Yersinia topoisomerase I cleavage product accumulation – biochemical, cherry-pick, dose response (AID 588525).
Experiment [1] concerns the target Acyl-homoserine lactone acylase PvdQ (Pseudomonas aeruginosa (strain LESB58), UniProt Q9I194). Description: PvdQ acylase enzyme activity blockers – biochemical, fluorescence, plate reader and imaging, cherry-picks, dose response (AID 493231).
In the next experiment the test system is HeLa. In words: toxicity to human HeLa cells – cell-based, 48 h, plate reader, cherry-picks, cytotoxicity control, dose response (AID 504942). Format: functional.
A further experiment concerns the target T1, Hexokinase-1 (Homo sapiens, UniProt P19367).
T1 sequence (P19367 whole entry): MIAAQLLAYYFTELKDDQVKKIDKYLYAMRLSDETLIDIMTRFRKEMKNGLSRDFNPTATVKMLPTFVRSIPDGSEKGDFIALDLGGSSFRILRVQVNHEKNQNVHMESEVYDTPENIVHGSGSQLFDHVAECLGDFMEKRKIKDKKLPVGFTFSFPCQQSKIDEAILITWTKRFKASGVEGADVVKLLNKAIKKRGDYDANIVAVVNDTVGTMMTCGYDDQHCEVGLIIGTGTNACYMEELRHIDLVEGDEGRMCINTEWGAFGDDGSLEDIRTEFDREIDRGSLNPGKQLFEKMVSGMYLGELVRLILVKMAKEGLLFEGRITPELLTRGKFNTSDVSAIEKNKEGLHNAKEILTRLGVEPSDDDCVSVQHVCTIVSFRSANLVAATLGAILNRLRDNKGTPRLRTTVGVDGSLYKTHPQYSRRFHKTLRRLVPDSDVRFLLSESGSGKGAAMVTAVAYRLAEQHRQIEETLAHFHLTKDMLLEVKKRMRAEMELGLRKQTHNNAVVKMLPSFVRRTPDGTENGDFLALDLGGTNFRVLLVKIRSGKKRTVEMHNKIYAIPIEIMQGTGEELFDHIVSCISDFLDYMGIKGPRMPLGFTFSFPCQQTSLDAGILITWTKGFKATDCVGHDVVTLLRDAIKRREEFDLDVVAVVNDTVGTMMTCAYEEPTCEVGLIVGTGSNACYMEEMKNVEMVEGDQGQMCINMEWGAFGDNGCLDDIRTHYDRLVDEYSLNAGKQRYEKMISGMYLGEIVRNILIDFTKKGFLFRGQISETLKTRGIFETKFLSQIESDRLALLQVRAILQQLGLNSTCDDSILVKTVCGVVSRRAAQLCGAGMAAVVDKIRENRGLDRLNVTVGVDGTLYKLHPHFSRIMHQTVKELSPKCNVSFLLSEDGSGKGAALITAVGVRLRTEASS
In words: SAR analysis of small molecule inhibitors of hexokinase domain containing I (HKDC1) in the hexokinase 1 selectivity assay. [Related pubchem assays (depositor defined):AID493160, AID493190]. It counts as functional.

For a further experiment, the target named is T2, Hexokinase HKDC1 (Homo sapiens, UniProt Q2TB90).
T2 sequence (Q2TB90 whole entry): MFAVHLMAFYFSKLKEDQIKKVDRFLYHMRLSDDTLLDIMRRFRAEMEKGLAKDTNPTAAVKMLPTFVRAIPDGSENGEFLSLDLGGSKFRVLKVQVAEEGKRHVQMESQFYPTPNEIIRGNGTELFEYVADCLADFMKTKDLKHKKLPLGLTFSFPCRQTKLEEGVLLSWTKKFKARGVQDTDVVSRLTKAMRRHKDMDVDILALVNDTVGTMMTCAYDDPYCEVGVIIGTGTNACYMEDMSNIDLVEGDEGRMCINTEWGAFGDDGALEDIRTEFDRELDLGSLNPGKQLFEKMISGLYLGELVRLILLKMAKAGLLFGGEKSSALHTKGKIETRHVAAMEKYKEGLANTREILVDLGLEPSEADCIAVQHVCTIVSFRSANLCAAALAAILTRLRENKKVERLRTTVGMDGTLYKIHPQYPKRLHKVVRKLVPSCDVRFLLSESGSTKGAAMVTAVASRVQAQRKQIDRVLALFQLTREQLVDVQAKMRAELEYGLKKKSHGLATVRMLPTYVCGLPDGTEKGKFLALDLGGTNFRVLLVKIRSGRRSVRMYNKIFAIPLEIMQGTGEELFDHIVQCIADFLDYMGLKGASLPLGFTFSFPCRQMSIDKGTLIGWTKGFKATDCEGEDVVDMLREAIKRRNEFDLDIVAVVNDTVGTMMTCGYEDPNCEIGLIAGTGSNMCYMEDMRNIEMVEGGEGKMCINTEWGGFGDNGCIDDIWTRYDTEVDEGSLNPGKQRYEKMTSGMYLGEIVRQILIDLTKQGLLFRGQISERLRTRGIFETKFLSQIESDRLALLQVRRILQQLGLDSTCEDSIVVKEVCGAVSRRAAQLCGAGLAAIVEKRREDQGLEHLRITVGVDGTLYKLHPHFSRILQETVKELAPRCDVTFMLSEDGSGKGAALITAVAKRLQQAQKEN
In words: SAR analysis of small molecule inhibitors of hexokinase domain containing I (HKDC1). [Related pubchem assays (depositor defined):AID493160, AID493190]. Format: functional.

Sequence of DNA topoisomerase (A0A2S9PM60 whole entry): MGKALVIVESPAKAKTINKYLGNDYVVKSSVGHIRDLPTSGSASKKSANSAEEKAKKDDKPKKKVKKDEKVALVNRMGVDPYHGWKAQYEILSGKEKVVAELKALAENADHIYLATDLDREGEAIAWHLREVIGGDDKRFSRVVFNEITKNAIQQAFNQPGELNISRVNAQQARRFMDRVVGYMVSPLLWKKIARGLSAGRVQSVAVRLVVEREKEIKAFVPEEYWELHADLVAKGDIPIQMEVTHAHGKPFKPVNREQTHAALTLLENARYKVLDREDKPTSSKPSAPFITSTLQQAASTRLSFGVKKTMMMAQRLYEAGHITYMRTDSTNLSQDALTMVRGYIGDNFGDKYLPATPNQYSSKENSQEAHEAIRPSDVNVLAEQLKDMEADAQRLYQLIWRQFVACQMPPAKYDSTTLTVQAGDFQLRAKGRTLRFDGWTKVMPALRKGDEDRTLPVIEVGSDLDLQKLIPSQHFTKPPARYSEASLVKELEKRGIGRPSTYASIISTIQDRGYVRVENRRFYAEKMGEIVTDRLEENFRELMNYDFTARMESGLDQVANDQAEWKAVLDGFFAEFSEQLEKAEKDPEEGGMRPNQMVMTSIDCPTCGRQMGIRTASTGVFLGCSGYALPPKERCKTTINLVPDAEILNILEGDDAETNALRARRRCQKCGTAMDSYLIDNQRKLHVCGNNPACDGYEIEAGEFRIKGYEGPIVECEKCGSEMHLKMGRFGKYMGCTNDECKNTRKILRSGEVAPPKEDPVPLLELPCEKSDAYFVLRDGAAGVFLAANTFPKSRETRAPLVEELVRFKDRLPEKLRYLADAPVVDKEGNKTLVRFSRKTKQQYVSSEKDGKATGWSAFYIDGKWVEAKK
Sequence of Acyl-homoserine lactone acylase PvdQ (Q9I194 24-193 limits assumed): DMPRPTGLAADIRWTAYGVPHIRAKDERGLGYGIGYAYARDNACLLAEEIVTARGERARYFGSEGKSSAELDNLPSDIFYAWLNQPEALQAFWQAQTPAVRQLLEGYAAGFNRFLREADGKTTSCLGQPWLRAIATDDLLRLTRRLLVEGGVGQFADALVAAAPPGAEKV
Sequence of Acyl-homoserine lactone acylase PvdQ (Q9I194 217-762 limits assumed): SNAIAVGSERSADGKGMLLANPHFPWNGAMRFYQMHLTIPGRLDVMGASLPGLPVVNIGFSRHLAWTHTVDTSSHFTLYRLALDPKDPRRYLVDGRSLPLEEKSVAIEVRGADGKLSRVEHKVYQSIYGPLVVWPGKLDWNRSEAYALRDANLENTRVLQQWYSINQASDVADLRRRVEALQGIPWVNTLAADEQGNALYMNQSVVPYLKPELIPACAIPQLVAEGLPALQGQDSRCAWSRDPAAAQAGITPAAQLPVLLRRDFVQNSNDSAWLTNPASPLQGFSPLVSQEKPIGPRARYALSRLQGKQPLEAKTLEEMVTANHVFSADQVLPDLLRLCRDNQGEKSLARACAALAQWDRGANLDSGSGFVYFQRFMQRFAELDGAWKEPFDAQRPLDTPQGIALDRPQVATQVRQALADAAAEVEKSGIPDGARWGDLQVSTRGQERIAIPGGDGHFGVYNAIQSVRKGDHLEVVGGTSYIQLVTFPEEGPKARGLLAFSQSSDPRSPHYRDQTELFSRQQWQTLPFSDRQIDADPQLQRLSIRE

For the compound `Cc1cc(NC(=O)c2cc(-c3ccccc3)on2)n(-c2ccccc2)n1`, at DNA topoisomerase, the AC50 is 4.16 µM (active).

For the compound `Cc1cccc(NC(=O)c2ccc3c(c2)OCCO3)n1`, the AC50 in experiment [1] is 10.2 µM (active); in the experiment with HeLa, 94.1 µM (active).

`Cc1ccccc1/C=C/c1nc2ccccc2c(=O)n1Cc1ccccc1`: the IC50 on Hexokinase-1 and at Hexokinase HKDC1 was > 80 µM (inactive) throughout.
